Measured values reported in US7569661B2, “Polypeptide scaffolds and use thereof” (Modpro AB, priority 2002, dated 2009).
No end group written: not given here. *: point of attachment. Dansyl = CN(C)c1cccc2c(S(=O)(=O)*)cccc12

How the values were obtained:
[1] = molecular target: T1, human carbonic anhydrase II, HCAII (Homo sapiens, UniProt P00918); assay: Surface plasmon resonance-based steady state affinity, immobilized HCAII; conditions: 1:1 binding model, peptide 40 nM to 10 μM
Experimental: [Taylor, P. W.; King, R. W.; Burgen, A. S. V. Biochemistry 1970, 9, 2638-2645] […] Lond. B 1976, 193, 107-125]. […] 1.4 equivalents of Id were allowed to react with 1 equivalent of KE2-P or KE3-P in 50 mM Tris-HCl buffer at pH 8.0 and room temperature.

[2] = molecular target: T1, human carbonic anhydrase II, HCAII; assay: Fluorescence emission spectra of dansyl-labelled peptides in absence and presence of HCAII; assay type: binding; conditions: 1 μM peptide, 50 μM HCAII, 10 mM HBS buffer pH 7.4, 298 K, excitation 335 nm
Experimental: Dotted lines represent spectra in the absence of HCAII, solid lines represent spectra where 50 μM HCAII has been added.
Spectra were recorded of 1 μM peptide solutions in 10 mM HBS buffer at pH 7.4 and 298 K, in the absence and presence of 50 μM HCAII, with 1 μM solutions of KE2-P and KE3-P as negative controls, FIG. 2.

| Molecule | Kd [1] [nM] | increase of fluorescence intensity upon addition of HCAII [2] |
| --- | --- | --- |
| NS(=O)(=O)c1ccc(C(=O)NCCCCCC(=O)O)cc1 [Ic] | 44 |  |
| KE3-P: KE3 with dansyl fluorescent probe at the side chain of Lys15; control without ligand (NAADLEAKIRHLAEK(Dansyl)LAARGPCDAAQLAEQLARRFEAFARAG) |  | not affected |
